In the SangsterLogP compilation:

Assay: method code SF, from DOI: 10.1016/j.ejps.2012.10.019, PMID: 23131797
Conditions: pH 2.0

| Compound | logD |
| --- | --- |
| CCN(C(=O)C(=O)c1cn(CC(=O)N2CCOCC2)c2ccccc12)c1ccccc1 | 2.05 |
| CC(C)=CC(=O)OCC(=O)Nc1ccc(S(=O)(=O)N(C)C)cc1 | 2.26 |
| Cc1ccc(C(=O)NCCc2ccc3c(c2)OCCO3)cc1[N+](=O)[O-] | 3.28 |

Same assay, conditions: pH 5.0

| Compound | logD |
| --- | --- |
| Cc1ccc(-c2cc(C(F)F)n3ncc(C(=O)N4CCSCC4)c3n2)cc1 | 4.55 |
| Cc1ccc(N(CCOC(=O)c2ccc(S(=O)(=O)N3CCCCC3)cc2)C2=NS(=O)(=O)c3ccccc32)cc1 | 5.58 |
| CCCCCCSC1=C(C#N)C(c2cccs2)C(C(=O)Nc2ccccc2OC)=C(C)N1 (stereo not drawn) | 6.28 |
| COc1ccc(C(=O)OCC(=O)NC2CCCCCCC2)cc1[N+](=O)[O-] | 4.28 |
| COC(=O)CN(c1ccccc1)S(=O)(=O)c1ccc(OC)cc1 | 3.43 |
| Cn1ncc(Br)c1C(=O)N1CCCCCC1 | 2.63 |
| O=C(Nc1ccc(OC(F)F)cc1)c1ccc(COc2ccc(I)cc2)o1 | 5.99 |
| O=C(Cn1cc(C(F)(F)F)cc(Cl)c1=O)N1CCN(C(=O)c2ccco2)CC1 | 2.27 |
| Cc1ccc(S(=O)(=O)N2CCCN(S(=O)(=O)c3ccc(C)cc3C)CC2)c(C)c1 | 5.01 |
| CCCCOc1ccc(C(=O)N(CCN2C(=O)c3ccccc3C2=O)c2cccc(OC)c2)cc1 | 5.35 |
| CCCC(=O)N1CC2(C)CN(C(=O)CCC)CC(C)(C1)C2 | 2.69 |
| CC(C)(C)NC(=S)Nc1ccc(F)cc1 | 2.71 |
| CCOc1ccc(NC=C(S(=O)(=O)c2ccc(C)cc2)S(=O)(=O)c2ccc(C)cc2)cc1 | 5.64 |
| CSc1sc(C(=O)N2CCOCC2)c2c1S(=O)(=O)N(C)c1ccccc1-2 | 3.11 |
| CCOC(=O)C(C)(C)N(CCC(C)C)S(=O)(=O)c1ccc([N+](=O)[O-])cc1 | 4.75 |
| Nn1c(SCC(=O)Nc2ccccc2-c2ccccc2)nnc1-c1ccc(OC(F)F)cc1 | 4.85 |
| COc1cc(C(=O)Nc2cccc(C#N)c2)cc(OC)c1OC | 3.44 |
| FC(F)(F)c1nc(-c2ccc(-c3noc(C(F)(F)F)n3)cc2)no1 | 6.06 |
| CC(NS(C)(=O)=O)c1ccccc1 (stereo not drawn) | 1.8 |
| CCOC(=O)c1[nH]c2c(c1C)C(Cl)=C(C=O)CC2 | 3.92 |

Same assay, conditions: pH 6.5

| Compound | logD |
| --- | --- |
| CN1C(=CC=CC(=O)C(F)(F)F)C(C)(C)c2ccccc21 | 4.41 |
| COC(=O)c1cccc(NC(=O)c2cc(C(=O)Nc3cccc(C(=O)OC)c3)cc(N3C(=O)c4ccccc4C3=O)c2)c1 | 6.09 |
| CC(=O)N1CC(=O)N(CC(=O)N(Cc2ccccc2)c2nc(-c3ccccc3)cs2)C1=S | 4.43 |
| COc1ccc(-c2nnc(N)s2)cc1OC | 2.34 |
| N#CC1=C(N)Oc2c(oc(CO)cc2=O)C1c1ccccc1OCc1ccccc1Cl (stereo not drawn) | 4.34 |
| N#Cc1nc(N2CCCC2)nc(N(c2ccccc2)c2ccccc2)n1 | 5.38 |
| COCCn1c(C)cc(C(=O)CSc2ncnc3sc(C)c(C)c23)c1C | 4.59 |

Same assay, conditions: pH 7.3

| Compound | logD |
| --- | --- |
| C=C(c1ccc(N(C)C)cc1)c1ccc(N(C)C)cc1 | 5.3 |
| O=C(c1cccnc1)N1CCN(S(=O)(=O)c2ccccc2)CC1 | 2.3 |
| COc1cc(OC)c(C2C3=C(CCCC3=O)Nc3ncnn32)cc1OC (stereo not drawn) | 2.19 |
| Cn1c(SCC(=O)NC2CCCCCC2)nnc1-c1ccc(Cl)cc1 | 4.21 |

Same assay, conditions: pH 10.0

| Compound | logD |
| --- | --- |
| COc1ccc(NC(=O)c2sc3sc(C(=O)Nc4ccc(OC)c(OC)c4)c(N)c3c2N)cc1OC | 4.88 |
| CC1(C)CC(=O)C2=C(C1)OC(N)=C(C#N)C21CCC2(CC1)OCCO2 | 3.24 |
| c1nc(NC2CCCC2)c2c3c(sc2n1)CCCC3 | 4.17 |

Same assay, conditions: pH 10.5

| Compound | logD |
| --- | --- |
| Cn1c(=O)c(C(=O)CN2CCSc3ccccc32)c(N)n(Cc2ccccc2)c1=O | 4.71 |
| COC(=O)CCNc1nc(-c2cccnc2)nc2sc3c(c12)CCCC3 | 4.69 |
| CN(C)c1nc(N)nc(COC(=O)c2ccc(-n3cnnc3)cc2)n1 | 2.74 |
| CC1=NN(c2ccccc2)C(=O)C1Sc1nc(N)c(C#N)c(-c2ccc(C)cc2)c1C#N (stereo not drawn) | 4.99 |
| Cn1c(N)c(C(=O)CSc2nc3ccccc3nc2SCC(=O)c2c(N)n(C)c(=O)n(C)c2=O)c(=O)n(C)c1=O | 2.59 |
| Cc1cc(C)n2c(SCc3ccc(C(=O)c4ccccc4)cc3)nnc2n1 | 4.43 |
